Holding throughout (experiment): Free Choice Kinase Assay Projects, Flashplate
One test addresses TEK (human) (UniProt Q02763). Particulars: compound 10.0 µM; ATP 1 µM.
Another test concerns the target CSNK2A1 (human) (UniProt P68400). Particulars: compound 10.0 µM; ATP 0.1 µM.
A further test concerns the target SRC (human) (UniProt P12931). To be noted: compound 10.0 µM; ATP 0.3 µM.
Another test addresses IGF1R (human) (UniProt P08069). To be noted: compound 10.0 µM; ATP 1 µM.
Another test addresses MAP3K8 (human) (UniProt P41279). To be noted: compound 10.0 µM; ATP 3 µM.
For the next test, the target named is AURKB (human) (UniProt Q96GD4). To be noted: compound 10.0 µM; ATP 10 µM.
AURKB (human), sequence (Q96GD4 whole entry, looked up): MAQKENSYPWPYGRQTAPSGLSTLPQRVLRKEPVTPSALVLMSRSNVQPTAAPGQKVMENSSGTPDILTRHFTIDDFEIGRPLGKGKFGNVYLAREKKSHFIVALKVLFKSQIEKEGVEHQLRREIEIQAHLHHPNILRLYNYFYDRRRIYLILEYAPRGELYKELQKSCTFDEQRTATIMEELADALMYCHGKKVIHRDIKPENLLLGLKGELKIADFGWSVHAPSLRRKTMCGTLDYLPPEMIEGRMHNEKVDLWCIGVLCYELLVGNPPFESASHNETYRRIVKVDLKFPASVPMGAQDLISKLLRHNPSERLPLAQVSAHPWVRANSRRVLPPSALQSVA
The next test has as its target MAPK14 (human) (UniProt Q16539). To be noted: compound 10.0 µM; ATP 1 µM.
The target of a further test is CDK4 CCND1 (human) (UniProt P11802+P24385). To be noted: compound 10.0 µM; ATP 3 µM.
A further test deals with MET (human) (UniProt P08581). Particulars: compound 10.0 µM; ATP 0.3 µM.
The target in the next test is EGFR (human) (UniProt P00533). To be noted: compound 10.0 µM; ATP 0.3 µM.
The target of a further test is NUAK1 (human) (UniProt O60285). To be noted: compound 10.0 µM; ATP 1 µM.
The next test has as its target AKT1 (human) (UniProt P31749). To be noted: compound 10.0 µM; ATP 3 µM.
The next test concerns the target PTK2 (human) (UniProt Q05397). Particulars: compound 10.0 µM; ATP 1 µM.
The target in another test is PDGFRB (human) (UniProt P09619). Particulars: compound 10.0 µM; ATP 0.3 µM.
The target in a further test is PLK1 (human) (UniProt P53350). Particulars: compound 10.0 µM; ATP 1 µM.
PLK1 (human), sequence (P53350 whole entry, looked up): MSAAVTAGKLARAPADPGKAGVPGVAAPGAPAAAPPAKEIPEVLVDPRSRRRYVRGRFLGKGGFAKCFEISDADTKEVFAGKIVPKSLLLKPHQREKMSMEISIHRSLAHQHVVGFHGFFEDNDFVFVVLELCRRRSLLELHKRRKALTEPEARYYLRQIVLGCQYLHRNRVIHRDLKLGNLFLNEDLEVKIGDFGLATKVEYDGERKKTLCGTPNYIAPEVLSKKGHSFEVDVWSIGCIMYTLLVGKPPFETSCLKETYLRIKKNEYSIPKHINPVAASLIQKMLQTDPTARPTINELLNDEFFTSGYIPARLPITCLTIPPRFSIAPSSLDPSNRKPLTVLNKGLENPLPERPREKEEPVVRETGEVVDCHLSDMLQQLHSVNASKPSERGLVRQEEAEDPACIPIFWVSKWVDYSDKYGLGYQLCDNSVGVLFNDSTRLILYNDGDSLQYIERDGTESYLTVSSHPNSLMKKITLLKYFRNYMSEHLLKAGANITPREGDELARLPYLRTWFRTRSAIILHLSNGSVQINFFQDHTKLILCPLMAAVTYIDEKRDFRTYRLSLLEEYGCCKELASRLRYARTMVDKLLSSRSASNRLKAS
A further test has as its target KDR (human) (UniProt P35968). To be noted: compound 10.0 µM; ATP 1 µM.
The target of another test is ERBB2 (human) (UniProt P04626). Particulars: compound 10.0 µM; ATP 1 µM.
A further test concerns the target EPHB4 (human) (UniProt P54760). To be noted: compound 10.0 µM; ATP 1 µM.
A further test deals with AXL (human) (UniProt P30530). Particulars: compound 10.0 µM; ATP 0.3 µM.
AXL (human), sequence (P30530 whole entry, looked up): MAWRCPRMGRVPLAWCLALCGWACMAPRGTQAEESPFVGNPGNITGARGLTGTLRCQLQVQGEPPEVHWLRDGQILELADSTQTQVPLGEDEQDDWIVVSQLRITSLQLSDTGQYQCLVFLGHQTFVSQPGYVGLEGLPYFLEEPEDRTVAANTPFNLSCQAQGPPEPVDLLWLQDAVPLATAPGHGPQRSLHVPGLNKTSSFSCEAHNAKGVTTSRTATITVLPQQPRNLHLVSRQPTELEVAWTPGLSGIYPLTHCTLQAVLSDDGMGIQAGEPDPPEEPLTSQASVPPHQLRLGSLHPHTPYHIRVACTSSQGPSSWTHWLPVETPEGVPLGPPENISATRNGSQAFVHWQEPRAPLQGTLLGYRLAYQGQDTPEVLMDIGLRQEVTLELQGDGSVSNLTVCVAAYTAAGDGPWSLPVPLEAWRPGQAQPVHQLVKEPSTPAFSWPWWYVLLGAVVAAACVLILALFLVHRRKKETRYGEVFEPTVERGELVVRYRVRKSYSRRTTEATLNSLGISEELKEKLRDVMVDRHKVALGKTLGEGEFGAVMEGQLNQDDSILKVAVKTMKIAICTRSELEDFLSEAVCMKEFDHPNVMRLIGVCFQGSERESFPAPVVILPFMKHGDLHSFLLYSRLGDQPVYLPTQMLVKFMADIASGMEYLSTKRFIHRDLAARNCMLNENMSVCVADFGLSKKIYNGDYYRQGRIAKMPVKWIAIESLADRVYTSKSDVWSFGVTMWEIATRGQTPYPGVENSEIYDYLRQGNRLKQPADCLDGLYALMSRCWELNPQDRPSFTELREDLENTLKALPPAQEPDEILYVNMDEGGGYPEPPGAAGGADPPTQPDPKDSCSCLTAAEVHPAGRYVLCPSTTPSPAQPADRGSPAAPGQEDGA
In the next test the target is AURKA (human) (UniProt O14965). To be noted: compound 10.0 µM; ATP 10 µM.
A further test concerns the target CDK2 CCNA2 (human) (UniProt P24941+P20248). To be noted: compound 10.0 µM; ATP 0.3 µM.
Another test has as its target MAPK10 (human) (UniProt P53779). To be noted: compound 10.0 µM; ATP 0.3 µM.
Another test deals with PLK4 (human) (UniProt O00444). Particulars: compound 10.0 µM; ATP 0.3 µM.

This is an account of results in the kinase profiling compilation of Christmann-Franck et al. (2016).

KDR (human), sequence (P35968 whole entry, looked up): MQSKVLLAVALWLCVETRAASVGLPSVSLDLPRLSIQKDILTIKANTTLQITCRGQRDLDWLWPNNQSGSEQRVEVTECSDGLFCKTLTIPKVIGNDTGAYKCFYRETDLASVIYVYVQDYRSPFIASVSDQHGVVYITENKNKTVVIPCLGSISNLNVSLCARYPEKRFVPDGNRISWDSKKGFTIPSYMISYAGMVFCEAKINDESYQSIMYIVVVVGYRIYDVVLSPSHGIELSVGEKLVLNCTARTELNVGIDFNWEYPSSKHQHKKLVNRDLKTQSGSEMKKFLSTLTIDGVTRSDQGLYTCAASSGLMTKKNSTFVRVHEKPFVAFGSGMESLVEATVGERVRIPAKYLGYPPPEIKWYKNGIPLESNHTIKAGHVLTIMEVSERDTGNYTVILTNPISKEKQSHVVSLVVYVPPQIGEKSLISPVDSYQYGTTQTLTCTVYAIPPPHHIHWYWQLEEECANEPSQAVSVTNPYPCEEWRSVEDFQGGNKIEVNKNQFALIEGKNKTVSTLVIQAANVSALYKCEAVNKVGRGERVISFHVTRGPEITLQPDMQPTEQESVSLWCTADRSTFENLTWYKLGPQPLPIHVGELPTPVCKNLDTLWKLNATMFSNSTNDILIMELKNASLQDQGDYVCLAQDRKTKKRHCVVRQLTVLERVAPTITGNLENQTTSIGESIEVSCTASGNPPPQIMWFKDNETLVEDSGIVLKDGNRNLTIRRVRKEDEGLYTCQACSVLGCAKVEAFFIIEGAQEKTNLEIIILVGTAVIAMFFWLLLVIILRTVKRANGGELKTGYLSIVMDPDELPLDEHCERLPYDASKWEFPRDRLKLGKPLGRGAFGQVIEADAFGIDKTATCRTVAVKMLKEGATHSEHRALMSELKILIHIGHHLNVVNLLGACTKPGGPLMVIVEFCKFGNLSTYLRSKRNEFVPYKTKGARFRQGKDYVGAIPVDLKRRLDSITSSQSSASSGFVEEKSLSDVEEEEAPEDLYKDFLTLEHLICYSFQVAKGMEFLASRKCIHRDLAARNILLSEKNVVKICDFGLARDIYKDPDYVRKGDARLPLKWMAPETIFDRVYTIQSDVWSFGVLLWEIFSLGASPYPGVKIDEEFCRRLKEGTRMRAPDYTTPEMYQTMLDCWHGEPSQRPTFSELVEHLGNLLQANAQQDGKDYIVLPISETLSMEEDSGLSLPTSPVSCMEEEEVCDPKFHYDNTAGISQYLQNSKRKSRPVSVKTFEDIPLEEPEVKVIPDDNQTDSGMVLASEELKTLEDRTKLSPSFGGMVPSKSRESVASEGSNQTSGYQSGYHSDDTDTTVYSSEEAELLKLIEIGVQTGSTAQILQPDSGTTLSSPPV
AKT1 (human), sequence (P31749 whole entry, looked up): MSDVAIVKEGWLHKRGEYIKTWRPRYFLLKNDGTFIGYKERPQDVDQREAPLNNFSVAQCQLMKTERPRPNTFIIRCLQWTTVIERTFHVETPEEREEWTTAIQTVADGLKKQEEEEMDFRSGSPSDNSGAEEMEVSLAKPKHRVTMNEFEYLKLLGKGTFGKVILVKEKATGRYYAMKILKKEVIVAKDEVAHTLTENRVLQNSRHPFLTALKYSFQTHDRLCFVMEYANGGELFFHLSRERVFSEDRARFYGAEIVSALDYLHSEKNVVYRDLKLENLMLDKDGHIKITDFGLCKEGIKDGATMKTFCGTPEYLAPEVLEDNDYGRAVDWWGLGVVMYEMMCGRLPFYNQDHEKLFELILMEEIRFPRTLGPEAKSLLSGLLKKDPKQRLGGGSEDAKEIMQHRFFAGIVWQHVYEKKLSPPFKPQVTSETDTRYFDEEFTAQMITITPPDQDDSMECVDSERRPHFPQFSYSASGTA
IGF1R (human), sequence (P08069 whole entry, looked up): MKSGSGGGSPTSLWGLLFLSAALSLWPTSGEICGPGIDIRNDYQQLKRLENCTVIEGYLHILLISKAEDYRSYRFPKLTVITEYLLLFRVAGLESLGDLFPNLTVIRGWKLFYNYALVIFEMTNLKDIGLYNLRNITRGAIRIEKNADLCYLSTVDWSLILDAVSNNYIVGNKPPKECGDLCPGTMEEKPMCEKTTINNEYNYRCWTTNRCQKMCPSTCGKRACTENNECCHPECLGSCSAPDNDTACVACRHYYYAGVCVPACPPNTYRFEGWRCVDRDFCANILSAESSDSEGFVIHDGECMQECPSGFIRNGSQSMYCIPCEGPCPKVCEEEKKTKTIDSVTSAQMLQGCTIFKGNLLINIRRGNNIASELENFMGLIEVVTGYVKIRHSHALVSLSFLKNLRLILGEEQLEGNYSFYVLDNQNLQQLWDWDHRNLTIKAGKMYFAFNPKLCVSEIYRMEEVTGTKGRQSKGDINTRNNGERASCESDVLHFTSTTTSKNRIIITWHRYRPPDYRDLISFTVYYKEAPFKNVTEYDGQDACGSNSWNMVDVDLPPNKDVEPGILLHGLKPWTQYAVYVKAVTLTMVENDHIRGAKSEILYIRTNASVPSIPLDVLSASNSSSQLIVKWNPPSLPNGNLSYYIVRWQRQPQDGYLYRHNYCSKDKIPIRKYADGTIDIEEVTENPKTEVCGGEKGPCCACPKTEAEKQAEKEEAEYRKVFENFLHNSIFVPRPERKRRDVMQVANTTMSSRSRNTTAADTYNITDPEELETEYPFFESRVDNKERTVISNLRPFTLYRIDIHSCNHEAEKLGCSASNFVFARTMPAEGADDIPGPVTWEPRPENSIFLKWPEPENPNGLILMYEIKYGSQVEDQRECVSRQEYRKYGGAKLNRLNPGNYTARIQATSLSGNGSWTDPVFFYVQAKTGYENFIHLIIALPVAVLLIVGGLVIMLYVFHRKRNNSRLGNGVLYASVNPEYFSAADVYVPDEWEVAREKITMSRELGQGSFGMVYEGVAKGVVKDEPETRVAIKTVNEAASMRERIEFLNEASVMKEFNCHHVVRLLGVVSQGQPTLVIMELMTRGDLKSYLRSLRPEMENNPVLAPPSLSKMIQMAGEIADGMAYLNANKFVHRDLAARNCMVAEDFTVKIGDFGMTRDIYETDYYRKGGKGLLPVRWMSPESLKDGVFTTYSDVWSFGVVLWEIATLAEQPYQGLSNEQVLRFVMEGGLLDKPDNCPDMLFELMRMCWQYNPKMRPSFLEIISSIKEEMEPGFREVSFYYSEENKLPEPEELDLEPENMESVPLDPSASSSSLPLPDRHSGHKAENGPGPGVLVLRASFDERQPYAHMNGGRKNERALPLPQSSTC

As to `Oc1cccc(CSc2nc(-c3ccncc3)c(-c3ccc(F)cc3)[nH]2)c1`, the residual activity stood at 18% on TEK (human); 95% at CSNK2A1 (human); 12% on SRC (human); 79% at IGF1R (human); 91% on MAP3K8 (human); 55% on AURKB (human). In addition, the residual activity was determined as 2% at MAPK14 (human); 121% at CDK4 CCND1 (human); 58% at MET (human); 3% at EGFR (human); 121% at NUAK1 (human); 144% at AKT1 (human). The residual activity stood at 88% at PTK2 (human); 35% at PDGFRB (human); 103% at PLK1 (human); 7% on KDR (human); 2% at ERBB2 (human); 35% at EPHB4 (human). For the same molecule, the residual activity at AXL (human) stood at 76%; on AURKA (human) it was 52%; on CDK2 CCNA2 (human), 126%; on MAPK10 (human), 17%; at PLK4 (human), 42%.
Regarding `On1c(/C=C/c2ccccc2)nc(-c2ccncc2)c1-c1ccc(F)cc1`, the residual activity at TEK (human) amounted to 5%; at CSNK2A1 (human), 68%; at SRC (human) it was 5%; on IGF1R (human) it was 13%; at MAP3K8 (human), 48%; on AURKB (human), 18%. Besides, the residual activity was found to be 3% on MAPK14 (human); 21% on CDK4 CCND1 (human); 23% on MET (human); 1% on EGFR (human); 51% on NUAK1 (human); 76% at AKT1 (human). For the same molecule, the residual activity on PTK2 (human) worked out at 65%; on PDGFRB (human), 31%; at PLK1 (human), 51%; at KDR (human) it was 9%; at ERBB2 (human), 4%; at EPHB4 (human), 19%. The residual activity was determined as 42% at AXL (human); 18% on AURKA (human); 20% at CDK2 CCNA2 (human); 9% on MAPK10 (human); 7% at PLK4 (human).
As for `Fc1ccc(-c2[nH]c(SCc3ccccc3)nc2-c2ccnc(F)c2)cc1`, the residual activity at TEK (human) is 34%; at CSNK2A1 (human), 86%; on SRC (human), 18%; at IGF1R (human) it was 41%; at MAP3K8 (human) it was 106%; on AURKB (human), 85%. Moreover, the residual activity on MAPK14 (human) was 7%; on CDK4 CCND1 (human), 109%; on MET (human), 76%; on EGFR (human), 17%; on NUAK1 (human), 127%; at AKT1 (human) it was 155%. In addition, the residual activity was 90% at PTK2 (human); 70% at PDGFRB (human); 131% on PLK1 (human); 32% at KDR (human); 9% on ERBB2 (human); 77% at EPHB4 (human). Moreover, the residual activity on AXL (human) was 75%; on AURKA (human) it was 93%; at CDK2 CCNA2 (human), 71%; on MAPK10 (human) it was 88%; on PLK4 (human), 128%.
For `Fc1ccc(-c2[nH]c(SCc3cccc4ccccc34)nc2-c2ccncc2)cc1`, the residual activity on TEK (human) is 11%; on CSNK2A1 (human), 77%; at SRC (human), 8%; at IGF1R (human), 17%; on MAP3K8 (human), 46%; on AURKB (human), 57%. In addition, the residual activity at MAPK14 (human) amounted to 3%; at CDK4 CCND1 (human), 44%; on MET (human), 40%; on EGFR (human), 8%; at NUAK1 (human), 53%; on AKT1 (human), 60%. The residual activity at PTK2 (human) worked out at 124%; at PDGFRB (human), 39%; at PLK1 (human) it was 46%; at KDR (human) it was 24%; on ERBB2 (human) it was 9%; on EPHB4 (human), 21%. The residual activity turned out to be 59% at AXL (human); 54% at AURKA (human); 20% at CDK2 CCNA2 (human); 17% at MAPK10 (human); 9% on PLK4 (human).
Regarding `N#CCSc1nc(-c2ccncc2)c(-c2ccc(F)cc2)[nH]1`, the residual activity is 10% at TEK (human); 93% on CSNK2A1 (human); 8% on SRC (human); 68% at IGF1R (human); 101% on MAP3K8 (human); 66% at AURKB (human). Moreover, the residual activity came out at 1% at MAPK14 (human); 102% on CDK4 CCND1 (human); 45% at MET (human); 2% on EGFR (human); 106% on NUAK1 (human); 110% at AKT1 (human). The residual activity on PTK2 (human) turned out to be 71%; at PDGFRB (human), 16%; at PLK1 (human), 86%; at KDR (human), 3%; on ERBB2 (human) it was 2%; on EPHB4 (human), 18%. The residual activity is 80% on AXL (human); 53% at AURKA (human); 90% at CDK2 CCNA2 (human); 12% on MAPK10 (human); 57% at PLK4 (human).
Regarding `Fc1ccc(-c2[nH]c(SCCc3ccccc3)nc2-c2ccncc2)cc1`, the residual activity worked out at 51% on TEK (human); 96% at CSNK2A1 (human); 43% on SRC (human); 43% on IGF1R (human); 69% at MAP3K8 (human); 78% on AURKB (human). Further, the residual activity on MAPK14 (human) was 41%; at CDK4 CCND1 (human), 59%; at MET (human), 66%; at EGFR (human), 24%; at NUAK1 (human), 77%; at AKT1 (human), 122%. Besides, the residual activity at PTK2 (human) was found to be 95%; on PDGFRB (human), 80%; at PLK1 (human) it was 93%; on KDR (human), 45%; on ERBB2 (human), 41%; at EPHB4 (human) it was 48%. Besides, the residual activity at AXL (human) was found to be 84%; on AURKA (human), 75%; on CDK2 CCNA2 (human), 72%; at MAPK10 (human) it was 81%; on PLK4 (human), 56%.
As for `Oc1ccccc1CSc1nc(-c2ccncc2)c(-c2ccc(F)cc2)[nH]1`, the residual activity at TEK (human) amounted to 32%; on CSNK2A1 (human) it was 90%; on SRC (human) it was 32%; at IGF1R (human), 49%; at MAP3K8 (human) it was 91%; at AURKB (human), 74%. Besides, the residual activity on MAPK14 (human) turned out to be 6%; at CDK4 CCND1 (human), 79%; on MET (human), 71%; at EGFR (human), 11%; at NUAK1 (human) it was 108%; on AKT1 (human), 137%. Also, the residual activity came to 128% at PTK2 (human); 64% on PDGFRB (human); 104% at PLK1 (human); 42% on KDR (human); 11% at ERBB2 (human); 44% at EPHB4 (human). The residual activity on AXL (human) is 96%; on AURKA (human), 74%; on CDK2 CCNA2 (human) it was 54%; on MAPK10 (human), 46%; at PLK4 (human), 38%.
